Results: patent publication US12281079B2, “Quinoline derivatives, processes for their preparation and uses thereof for the treatment of cancer” (Lead Discovery Center GmbH, priority 2019, dated 2025)

Legend:
[1] = target: mitochondrial RNA polymerase (POLRMT) (Mus musculus, UniProt Q8BKF1); test: Homogeneous TR-FRET assay for mitochondrial transcription activity; assay type: biochemical; settings: homogeneous TR-FRET assay according to Example 4
Procedure, shortened: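 Read-out is TR-FRET (ex 340, em 665 nm) from two adjacent labelled DNA probes annealing to the 407 bp transcript after EDTA/700 mM NaCl stop. Reaction: murine POLRMT, TFAM, TFB2M and LSP plasmid template, compound 10 μM or serial dilution, 10 min rt preincubation, 500 μM each nucleotide, 2 h rt.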

[2] = test system: mitochondrial transcription (7S RNA) in HeLa cells; test: Quantitative real time-PCR assay of inhibition of mitochondrial transcription (7S RNA) in HeLa cells; assay type: cell-based; settings: Homo sapiens, 4 h compound incubation, according to Example 5, read-out: cellular qPCR assay
Procedure: Quantitative real-time PCR (qRT-PCR), based on the TaqMan™ (Thermo Fisher Scientific, Waltham Mass.) technology, was carried out essentially as described in Held et al. (1996). HeLa cells were plated one day before compound treatment in RPMI medium supplemented with 10% Fetal Calf Serum and 2 mM L-glutamine. Cells were incubated with dilution series of compounds or vehicle (DMSO) for 4 h, prior to harvest and extraction of the RNA using the RNeasy Mini Kit (Qiagen, Hilden D), according to the manufacturer's instructions. RNA concentrations were measured spectroscopically, using a NanoDrop-2000 (Thermo Fisher Scientific, Waltham Mass.) and normalized prior to cDNA synthesis, using a ‘High-Capacity cDNA Reverse Transcription Kit’ (Thermo Fisher Scientific, Waltham Mass.). qRT-PCR was carried out using the ‘TaqMan Fast Advance Master Mix’ (Thermo Fisher Scientific, Waltham Mass.) on a 7500 Fast Real-Time PCR machine (Applied Biosystems, Foster City Calif.)
For these measurements, three genes were used to compare the effect of the scrutinized compounds in relation to their concentration. The POLRMT-gene was used to detect potential influences on nuclear transcription. Mitochondrial transcription in vivo was monitored by measurements 7S RNA. The TBP (TATA-box binding protein) gene was employed as the control (housekeeping gene) during qRT-PCR. The short-lived mitochondrial 7S RNA, which is not post-transcriptionally stabilized, allowed us to monitor rapid changes in mitochondrial transcription activity following compound addition. Biological triplicates were analyzed using the comparative CT Method (ΔΔCt) method (Bubner and Baldwin, 2004) and reported as Rq % values (Rq=Relative quantification=2−ΔΔCt).

mitochondrial RNA polymerase (POLRMT), sequence (Q8BKF1 42-1207): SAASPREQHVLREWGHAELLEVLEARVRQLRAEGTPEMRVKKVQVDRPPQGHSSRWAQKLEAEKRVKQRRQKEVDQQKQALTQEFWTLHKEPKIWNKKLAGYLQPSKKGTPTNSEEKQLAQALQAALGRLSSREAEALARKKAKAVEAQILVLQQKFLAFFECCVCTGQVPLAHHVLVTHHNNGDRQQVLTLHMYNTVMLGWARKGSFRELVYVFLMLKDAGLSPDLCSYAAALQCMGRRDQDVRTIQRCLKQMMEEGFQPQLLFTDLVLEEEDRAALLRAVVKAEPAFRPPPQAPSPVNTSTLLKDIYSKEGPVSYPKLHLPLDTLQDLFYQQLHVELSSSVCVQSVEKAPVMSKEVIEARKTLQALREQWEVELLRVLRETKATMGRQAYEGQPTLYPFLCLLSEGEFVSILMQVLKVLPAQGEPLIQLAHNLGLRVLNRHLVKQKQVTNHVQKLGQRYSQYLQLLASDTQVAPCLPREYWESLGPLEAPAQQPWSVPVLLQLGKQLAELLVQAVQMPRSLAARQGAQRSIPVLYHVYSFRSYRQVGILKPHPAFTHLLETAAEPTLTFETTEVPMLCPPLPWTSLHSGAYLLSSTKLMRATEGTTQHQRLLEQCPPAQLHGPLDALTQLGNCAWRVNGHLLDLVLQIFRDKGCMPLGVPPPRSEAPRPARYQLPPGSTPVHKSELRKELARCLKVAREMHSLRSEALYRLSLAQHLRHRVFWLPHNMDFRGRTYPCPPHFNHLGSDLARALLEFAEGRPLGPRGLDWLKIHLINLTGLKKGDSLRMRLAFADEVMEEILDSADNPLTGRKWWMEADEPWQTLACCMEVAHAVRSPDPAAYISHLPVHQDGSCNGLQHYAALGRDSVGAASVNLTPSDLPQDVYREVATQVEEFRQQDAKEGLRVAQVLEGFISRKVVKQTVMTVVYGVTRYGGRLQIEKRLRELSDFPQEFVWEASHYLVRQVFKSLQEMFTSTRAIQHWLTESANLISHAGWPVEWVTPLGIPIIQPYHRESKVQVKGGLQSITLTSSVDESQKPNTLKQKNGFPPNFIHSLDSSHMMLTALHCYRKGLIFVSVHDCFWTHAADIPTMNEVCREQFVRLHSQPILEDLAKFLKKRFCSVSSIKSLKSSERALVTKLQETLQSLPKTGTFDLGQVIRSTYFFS

Compound: CC(Oc1ccc2c(-c3ccccc3Cl)ccnc2c1)C(=O)N(C)C (centres unmarked) [Compound 86, 2-[[4-(2-chlorophenyl)-7-quinolyl]oxy]-N,N-dimethyl-propanamide]
- IC50 [1]: 1000 to 10000 nM
- IC50 [2]: 50 to 500 nM

Compound: Cc1ccccc1-c1cc(Cl)nc2cc(O[C@H](C)C(=O)OC(C)(C)C)ccc12 [Compound 73, tert-butyl (2R)-2-[[2-chloro-4-(o-tolyl)-7-quinolyl]oxy]propanoate]
- IC50 [1]: 100 to 1000 nM
- IC50 [2]: 50 to 500 nM

Compound: Cc1cc(-c2c(C)cccc2C)c2ccc(O[C@H](C)C(=O)N3CCC[C@@H](S(N)(=O)=O)C3)cc2n1 [Compound 114, (3R)-1-[(2R)-2-[[4-(2,6-dimethylphenyl)-2-methyl-7-quinolyl]oxy]propanoyl]piperidine-3-sulfonamide]
- IC50 [1]: 100 to 1000 nM
- IC50 [2]: 10 to 50 nM

Compound: C[C@@H](Oc1ccc2c(-c3ccc(F)cc3Cl)ccnc2c1)C(=O)Nc1ccccn1 [Compound 130, (2R)-2-[[4-(2-chloro-4-fluoro-phenyl)-7-quinolyl]oxy]-N-(2-pyridyl)propanamide]
- IC50 [1]: 100 to 1000 nM
- IC50 [2]: 500 to 5000 nM

Compound: C[C@@H](Oc1ccc2c(-c3ccc(F)cc3Cl)ccnc2c1)C(=O)N1CC[C@H](CC(=O)O)C1 [Compound 40, 2-[(3R)-1-[(2R)-2-[[4-(2-chloro-4-fluoro-phenyl)-7-quinolyl]oxy]propanoyl]pyrrolidin-3-yl]acetic acid]
- IC50 [1]: 100 to 1000 nM
- IC50 [2]: 50 to 500 nM

Compound: CCOC(=O)[C@H]1CCCN(C(=O)[C@@H](C)Oc2ccc3c(-c4c(C)cccc4C)ccnc3c2)C1 [Compound 4, ethyl (3S)-1-[(2R)-2[[4-(2,6-dimethylphenyl)-7-quinolyl]oxy]propanoyl]piperidine-3-carboxylate]
- IC50 [1]: < 20 nM
- IC50 [2]: < 10 nM

Compound: C[C@@H](Oc1ccc2c(-c3ccccc3Cl)ccnc2c1)C(=O)N1CCC[C@H](C(=O)O)C1 [Compound 9, (3S)-1-[(2R)-2-[[4-(2-chlorophenyl)-7-quinolyl]oxy]propanoyl]piperidine-3-carboxylic acid]
- IC50 [1]: < 20 nM
- IC50 [2]: < 10 nM

Compound: Cc1cc(F)cc(C)c1-c1ccnc2cc(O[C@H](C)C(=O)N3CCC[C@](C)(C(=O)O)C3)ccc12 [Compound 184, (3S)-1-[(2R)-2-[[4-(4-fluoro-2,6-dimethyl-phenyl)-7-quinolyl]oxy]propanoyl]-3-methyl-piperidine-3-carboxylic acid]
- IC50 [1]: < 20 nM
- IC50 [2]: < 10 nM

Compound: Cc1cc(-c2c(C)cccc2C)c2ccc(O[C@H](C)C(=O)N3CCC[C@H](S(N)(=O)=O)C3)cc2n1 [Compound 113, (3S)-1-[(2R)-2-[[4-(2,6-dimethylphenyl)-2-methyl-7-quinolyl]oxy]propanoyl]piperidine-3-sulfonamide]
- IC50 [1]: 100 to 1000 nM
- IC50 [2]: 50 to 500 nM

Compound: CC1CCCC(C)N1C(=O)[C@@H](C)Oc1ccc2c(-c3ccc(F)cc3Cl)ccnc2c1 (stereo partly drawn) [Compound 211, (2R)-2-[[4-(2-chloro-4-fluoro-phenyl)-7-quinolyl]oxy]-1-(2,6-dimethyl-1-piperidyl)propan-1-one]
- IC50 [1]: 100 to 1000 nM
- IC50 [2]: 10 to 50 nM

Compound: C[C@@H](Oc1ccc2c(-c3ccc(F)cc3Cl)ccnc2c1)C(=O)N1CCC[C@H](S(N)(=O)=O)C1 [Compound 116, (3S)-1-[(2R)-2-[[4-(2-chloro-4-fluoro-phenyl)-7-quinolyl]oxy]propanoyl]piperidine-3-sulfonamide]
- IC50 [1]: 100 to 1000 nM
- IC50 [2]: < 10 nM

Compound: C[C@@H](Oc1ccc2c(-c3c(Cl)cccc3Cl)ccnc2c1)C(=O)N1CCC[C@H](CC(=O)O)C1 [Compound 120, 2-[(3R)-1-[(2R)-2-[[4-(2,6-dichlorophenyl)-7-quinolyl]oxy]propanoyl]-3-piperidyl]acetic acid]
- IC50 [1]: < 20 nM
- IC50 [2]: 10 to 50 nM

Compound: Cc1cc(F)cc(C)c1-c1ccnc2cc(O[C@H](C)C(=O)N3CCC[C@H](CC(=O)O)C3)ccc12 [Compound 183, 2-[(3R)-1-[(2R)-2-[[4-(4-fluoro-2,6-dimethyl-phenyl)-7-quinolyl]oxy]propanoyl]-3-piperidyl]acetic acid]
- IC50 [1]: < 20 nM
- IC50 [2]: < 10 nM

Compound: Cc1cc(-c2c(C)cccc2C)c2ccc(O[C@H](C)C(=O)N3CCC[C@H](CC(=O)O)C3)cc2n1 [Compound 124, 2-[(3R)-1-[(2R)-2-[[4-(2,6-dimethylphenyl)-2-methyl-7-quinolyl]oxy]propanoyl]-3-piperidyl]acetic acid]
- IC50 [1]: 100 to 1000 nM
- IC50 [2]: 50 to 500 nM

Compound: Cc1ccccc1-c1ccnc2cc(O[C@H](C)C(=O)N3CCC[C@H](C(=O)O)C3)ccc12 [Compound 1, (3S)-1-[(2R)-2-[[4-(o-tolyl)-7-quinolyl]oxy]propanoyl]piperidine-3-carboxylic acid]
- IC50 [1]: < 20 nM
- IC50 [2]: < 10 nM

Compound: C[C@@H](Oc1ccc2c(-c3ccc(F)cc3Cl)ccnc2n1)C(=O)N1CCC[C@H](CC(=O)O)C1 [Compound 128, 2-[(3R)-1-[(2R)-2-[[5-(2-chloro-4-fluoro-phenyl)-1,8-naphthyridin-2-yl]oxy]propanoyl]-3-piperidyl]acetic acid]
- IC50 [1]: 100 to 1000 nM
- IC50 [2]: 50 to 500 nM

Compound: Cc1cc(F)cc(C)c1-c1ccnc2nc(O[C@H](C)C(=O)N3CCC[C@H](CC(=O)O)C3)ccc12 [Compound 221, 2-[(3R)-1-[(2R)-2-[[5-(4-fluoro-2,6-dimethyl-phenyl)-1,8-naphthyridin-2-yl]oxy]propanoyl]-3-piperidyl]acetic acid]
- IC50 [1]: < 20 nM
- IC50 [2]: < 10 nM

Compound: C[C@@H](Oc1ccc2c(-c3ccc(F)cc3Cl)ccnc2c1)C(=O)N1CCC[C@H](c2nn[nH]n2)C1 [Compound 11, (2R)-2-[[4-(2-chloro-4-fluoro-phenyl)-7-quinolyl]oxy]-1-[(3S)-3-(2H-tetrazol-5-yl)-1-piperidyl]propan-1-one]
- IC50 [1]: < 20 nM
- IC50 [2]: 50 to 500 nM

Compound: CCOC(=O)C[C@H]1CCCN(C(=O)[C@@H](C)Oc2ccc3c(-c4ccccc4C)cc(C)nc3c2)C1 [Compound 49, ethyl 2-[(3R)-1-[(2R)-2-[[2-methyl-4-(o-tolyl)-7-quinolyl]oxy]propanoyl]-3-piperidyl]acetate]
- IC50 [1]: 100 to 1000 nM
- IC50 [2]: 10 to 50 nM

Compound: C[C@@H](Oc1ccc2c(-c3ccccc3Cl)ccnc2c1)C(=O)N1CCC(CC(=O)O)CC1 [Compound 112, 2-[1-[(2R)-2-[[4-(2-chlorophenyl)-7-quinolyl]oxy]propanoyl]-4-piperidyl]acetic acid]
- IC50 [1]: 20 to 100 nM
- IC50 [2]: 10 to 50 nM

Compound: C[C@@H](Oc1ccc2c(-c3ccc(F)cc3Cl)ccnc2c1)C(=O)N1CCCC1 [Compound 42, (2R)-2-[[4-(2-chloro-4-fluoro-phenyl)-7-quinolyl]oxy]-1-pyrrolidin-1-yl-propan-1-one]
- IC50 [1]: 100 to 1000 nM
- IC50 [2]: 50 to 500 nM

Compound: Cc1cc(-c2ccc(F)cc2Cl)c2ccc(O[C@H](C)C(=O)N3CCC[C@@H](S(N)(=O)=O)C3)cc2n1 [Compound 115, (3R)-1-[(2R)-2-[[4-(2-chloro-4-fluoro-phenyl)-2-methyl-7-quinolyl]oxy]propanoyl]piperidine-3-sulfonamide]
- IC50 [1]: 1000 to 10000 nM
- IC50 [2]: 50 to 500 nM

Compound: C[C@@H](Oc1ccc2c(-c3c(Cl)cc(F)cc3Cl)ccnc2c1)C(=O)N1CCCC[C@@H]1C [Compound 199, (2R)-2-[[4-(2,6-dichloro-4-fluoro-phenyl)-7-quinolyl]oxy]-1-[(2S)-2-methyl-1-piperidyl]propan-1-one]
- IC50 [1]: 20 to 100 nM
- IC50 [2]: < 10 nM

Compound: Cc1cc(-c2ccc(F)cc2Cl)c2ccc(O[C@H](C)C(=O)N3CCC[C@H](C(=O)O)C3)cc2n1 [Compound 59, (3S)-1-[(2R)-2-[[4-(2-chloro-4-fluoro-phenyl)-2-methyl-7-quinolyl]oxy]propanoyl]piperidine-3-carboxylic acid]
- IC50 [1]: 100 to 1000 nM
- IC50 [2]: 10 to 50 nM

Compound: C[C@@H](Oc1ccc2c(-c3ccc(F)cc3Cl)ccnc2c1)C(=O)N1CCCC2(COC2)C1 [Compound 212, (2R)-2-[[4-(2-chloro-4-fluoro-phenyl)-7-quinolyl]oxy]-1-(2-oxa-8-azaspiro[3.5]nonan-8-yl)propan-1-one]
- IC50 [1]: 100 to 1000 nM
- IC50 [2]: < 10 nM

Compound: CC(=O)N(O)[C@H]1CCCN(C(=O)[C@@H](C)Oc2ccc3c(-c4ccc(F)cc4Cl)ccnc3c2)C1 [Compound 209, N-hydroxy-N-[(3S)-1-[(2R)-2-[[4-(2-chloro-4-fluoro-phenyl)-7-quinolyl]oxy]propanoyl]-3-piperidyl]acetamide]
- IC50 [1]: 100 to 1000 nM
- IC50 [2]: 10 to 50 nM

Compound: Cc1cc(F)ccc1-c1cc(Cl)nc2cc(O[C@H](C)C(=O)N3CCC[C@H](C(=O)O)C3)ccc12 [Compound 35, (3S)-1-[(2R)-2-[[2-chloro-4-(4-fluoro-2-methyl-phenyl)-7-quinolyl]oxy]propanoyl]piperidine-3-carboxylic acid]
- IC50 [1]: 100 to 1000 nM
- IC50 [2]: < 10 nM

Compound: CC(C)NC(=O)[C@@H](C)Oc1ccc2c(-c3ccccc3Cl)ccnc2c1 [Compound 48, (2R)-2-[[4-(2-chlorophenyl)-7-quinolyl]oxy]-N-isopropyl-propanamide]
- IC50 [1]: 100 to 1000 nM
- IC50 [2]: 50 to 500 nM
